Test results: patent publication US8053465B2, “Bicycloester derivative” (Kyorin Pharmaceutical Co., Ltd., priority 2004, dated 2011)

Tests used:
[1] = target: T1, plasma dipeptidylpeptidase IV (Mus musculus, UniProt P28843); assay: Inhibition of plasma dipeptidylpeptidase IV activity in mice by oral administration; format: in vivo; conditions: male ICR mice, 0.1 mg/mL suspension at 10 mL/kg, 30 minutes after administration
T1 construct: The blood samples were centrifuged at 6000 rpm for 2 minutes to separate plasma; tissue Charles River Laboratories Japan; host or cells: plasma of male ICR mice
Protocol: Each compound was suspended in 0.3% sodium carboxymethylcellulose to a concentration of 0.1 mg/mL. The preparation was orally administered to 8-week old male ICR mice (Charles River Laboratories Japan) at a dose of 10 mL/kg. Using an EDTA 2K-treated capillary tube, blood samples were collected from the tail vein before administration and 30 minutes after administration. The blood samples were centrifuged at 6000 rpm for 2 minutes to separate plasma. […] The inhibition was determined from the decrease in the enzymatic activity from the initial activity (% inhibition={(activity before administration−activity after administration)/(activity before administration)}×100).

[2] = target: T2, plasma dipeptidylpeptidase IV (Homo sapiens, UniProt P27487); assay: In vitro dipeptidylpeptidase IV inhibitory activity (plasma, H-Gly-Pro-AMC fluorometry); format: biochemical; conditions: plasma diluted 8-fold, H-Gly-Pro-AMC.HBr substrate, room temperature 20 minutes
T2 construct: 20 μL of plasma diluted 8-fold with saline in a well of a 96-well flat bottom plate; from tissue
Protocol: The concentration of free 7-amino-4-methyl-coumarin (AMC) generated by hydrolysis of H-Gly-Pro-AMC.HBr substrate by plasma dipeptidylpeptidase IV was determined by fluorometry.
A 20 μL of buffer (25 mmol/L hepes, 140 mmol/L sodium chloride, 1% bovine serum albumin, 80 mmol/L magnesium chloride hexahydrate, pH 7.4) containing each compound was added to 20 μL of plasma diluted 8-fold with saline in a well of a 96-well flat bottom plate. The plate was left at room temperature for 5 minutes and 10 μL of 0.1 mmol/L H-Gly-Pro-AMC.HBr solution was added to each well to initiate the reaction. […] Using a fluorescent plate reader, the free AMC concentration was determined by exciting the samples at 355 nm and measuring the fluorescence intensity at 460 nm.

T2 sequence (P27487 whole entry): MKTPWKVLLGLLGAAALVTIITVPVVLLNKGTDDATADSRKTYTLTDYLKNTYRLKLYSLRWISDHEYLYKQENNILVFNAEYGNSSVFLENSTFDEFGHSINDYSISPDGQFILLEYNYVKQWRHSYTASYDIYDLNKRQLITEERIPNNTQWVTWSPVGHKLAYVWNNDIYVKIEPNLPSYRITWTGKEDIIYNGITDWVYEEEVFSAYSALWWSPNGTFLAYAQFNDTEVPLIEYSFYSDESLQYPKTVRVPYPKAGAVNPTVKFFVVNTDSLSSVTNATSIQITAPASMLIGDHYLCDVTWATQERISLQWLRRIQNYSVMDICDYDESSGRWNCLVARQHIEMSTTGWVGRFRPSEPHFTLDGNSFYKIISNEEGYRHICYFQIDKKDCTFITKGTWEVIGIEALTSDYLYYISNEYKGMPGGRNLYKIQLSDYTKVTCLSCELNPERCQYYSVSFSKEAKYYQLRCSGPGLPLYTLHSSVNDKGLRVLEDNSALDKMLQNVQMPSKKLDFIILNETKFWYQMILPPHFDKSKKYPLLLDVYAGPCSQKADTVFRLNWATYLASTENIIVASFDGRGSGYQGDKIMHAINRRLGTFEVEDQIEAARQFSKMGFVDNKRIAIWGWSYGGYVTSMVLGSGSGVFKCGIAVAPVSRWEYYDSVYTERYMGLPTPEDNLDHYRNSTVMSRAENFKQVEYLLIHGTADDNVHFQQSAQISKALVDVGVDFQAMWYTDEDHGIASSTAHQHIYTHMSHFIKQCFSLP
T1 sequence (P28843 whole entry): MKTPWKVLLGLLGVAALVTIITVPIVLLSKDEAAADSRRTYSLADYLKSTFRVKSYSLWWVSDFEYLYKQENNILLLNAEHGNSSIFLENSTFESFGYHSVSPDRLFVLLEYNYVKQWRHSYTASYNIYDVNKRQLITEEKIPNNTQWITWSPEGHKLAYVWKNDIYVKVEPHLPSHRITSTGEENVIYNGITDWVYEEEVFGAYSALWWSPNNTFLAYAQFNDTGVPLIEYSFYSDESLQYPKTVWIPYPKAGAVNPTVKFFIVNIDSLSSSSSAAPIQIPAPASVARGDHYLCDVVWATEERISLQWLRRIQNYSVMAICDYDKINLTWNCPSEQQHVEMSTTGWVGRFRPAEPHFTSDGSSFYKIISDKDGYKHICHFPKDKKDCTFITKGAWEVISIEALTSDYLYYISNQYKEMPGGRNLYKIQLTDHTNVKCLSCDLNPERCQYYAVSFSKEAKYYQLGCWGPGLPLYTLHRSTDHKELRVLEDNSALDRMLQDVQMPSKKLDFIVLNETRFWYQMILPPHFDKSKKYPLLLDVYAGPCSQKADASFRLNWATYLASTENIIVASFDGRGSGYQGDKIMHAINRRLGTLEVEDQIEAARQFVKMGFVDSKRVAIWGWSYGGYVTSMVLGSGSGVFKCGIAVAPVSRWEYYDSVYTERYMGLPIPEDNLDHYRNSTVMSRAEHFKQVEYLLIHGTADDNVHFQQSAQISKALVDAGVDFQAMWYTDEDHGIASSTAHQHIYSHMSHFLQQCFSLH

| inhibition at 100 µg/mL (stock) [1] [%] | IC50 [2] [nM] | Compound |
| --- | --- | --- |
| 94 | 0.48 | N#C[C@@H]1C[C@H](F)CN1C(=O)CNC12CCC(C(=O)OCC3CC3)(CC1)CC2 [Example 9, (2S,4S)-1-[[N-(4-cyclopropylmethyloxycarbonylbicyclo[2.2.2]oct-1-yl)amino]acetyl]-4-fluoropyrrolidine-2-carbonitrile] |
| – | 0.23 | N#C[C@@H]1C[C@H](F)CN1C(=O)CNC12CCC(C(=O)OCc3ccc(C(F)(F)F)cc3)(CC1)CC2 [Example 10, (2S,4S)-4-fluoro-1-[[N-[4-(4-trifluoromethylbenzyl)oxycarbonylbicyclo[2.2.2]oct-1-yl]amino]acetyl]pyrrolidine-2-carbonitrile] |
| 93 | 0.13 | CC(C)COC(=O)C12CCC(NCC(=O)N3C[C@@H](F)C[C@H]3C#N)(CC1)CC2 [Example 11, (2S,4S)-4-fluoro-1-[[N-[4-(2-methylpropyl)oxycarbonylbicyclo[2.2.2]oct-1-yl]amino]acetyl]pyrrolidine-2-carbonitrile] |
| 100 | 0.25 | CCOC(=O)C12CCC(NCC(=O)N3C[C@@H](F)C[C@H]3C#N)(CC1)CC2 [Example 1, (2S,4S)-1-[[N-(4-ethoxycarbonylbicyclo[2.2.2]oct-1-yl)amino]acetyl]-4-fluoropyrrolidine-2-carbonitrile] |
